Source: patent publication US10800816B2 (Baxalta GmbH, priority 2012, dated 2020)
pIC50: −log10 of the molar value. Like-named read-outs stand apart in the source and are kept apart here. *1 amine or outer side, *2 acyl side, *3 side chain or, on linkers, in order; H or OH if unused. Where a SMILES comes first, the peptide text is derived from it. Bridges are numbered along the chain shown (N, C = ends). Side-chain parts run from the residue outwards. [ ]: non-standard residue; d: D form. The star is where a group is joined. X1 = CCCCCCCCCCCCCC(=O)NCCCOCCOCCOCCCN*; Suc = O=C(CCC(=O)[*:2])[*:1]; Tle = CC(C)(C)[C@H](N)C(=O)O; hCys = N[C@@H](CCS)C(=O)O; Hexanoyl = CCCCCC(=O)*; Aib = CC(C)(N)C(=O)O; Acm = CC(=O)NC*

Legend:
[1] = tested on: Tissue Factor Pathway Inhibitor (TFPI); test: IC50 ELISA | Mean IC50 [nM]
[2] = tested on: TFPI; test: IC50 ELISA | Mean IC50 [nM]
[3] = tested on: TFPI; test: IC50 ELISA | Mean IC50 [nM]; remark: listed apart in the source
Description: Table printed on a drawing sheet, FIGURE 78Z
Head of the field: IC50 ELISA | Mean IC50 [nM]
First copying reader's note: Continued table: the first body row (45.67) belongs to a compound on the preceding sheet, the last row probably continues on the next sheet, and cells with several values list single replicates.

[4] = tested on: TFPI; test: Progress Curves of Inhibition of FXa | % Inhibit (2.5µM)
Procedure: Head of the field: Progress Curves of Inhibition of FXa | % Inhibit (2.5µM)
“*” denotes negative controls.

[5] = tested on: TFPI; test: Progress Curves of Inhibition of FXa | % Inhibit (2.5μM)
Procedure: Head of the field: Progress Curves of Inhibition of FXa | % Inhibit (2.5μM)

[6] = tested on: TFPI; test: Extrinsic Tenase Inhibition by TFPI | % Inhibit (2.5μM )
[7] = tested on: Tissue Factor Pathway Inhibitor (TFPI); test: IC50 ELISA | Mean IC50 [nM]; remark: listed apart in the source
[8] = tested on: TFPI; test: IC50 ELISA | Mean IC50 [nM]; remark: listed apart in the source
[9] = tested on: TFPI; test: IC50 ELISA | Mean IC50 [nM]; remark: listed apart in the source
[10] = tested on: Tissue Factor Pathway Inhibitor (TFPI); test: IC50 ELISA | Mean IC50 [nM]; remark: listed apart in the source
[11] = tested on: TFPI; conditions: read-out: IC50 Mean
[12] = tested on: Tissue Factor Pathway Inhibitor (TFPI); test: IC50 ELISA | IC50 [nM]
Description: Table printed on a drawing sheet, FIGURE 78E
(§1) Head of the field: IC50 ELISA | IC50 [nM]

[13] = tested on: Tissue Factor Pathway Inhibitor (TFPI); test: IC50 ELISA | IC50 [nM]; remark: listed apart in the source
Description: Table printed on a drawing sheet, FIGURE 78N
as §1

[14] = tested on: Tissue Factor Pathway Inhibitor (TFPI); test: IC50 ELISA | IC50 [nM]; remark: listed apart in the source
Description: Table printed on a drawing sheet, FIGURE 78Q
as §1

[15] = tested on: Tissue Factor Pathway Inhibitor (TFPI); test: IC50 ELISA | IC50 [nM]; remark: listed apart in the source
Description: Table printed on a drawing sheet, FIGURE 78S
as §1

`CC(=O)N[C@@H](Cc1ccccc1)C(=O)N[C@@H](CCC(N)=O)C(=O)N[C@@H](CO)C(=O)N[C@@H](CCCCN)C(=O)N1CCC[C@@H]1C(=O)N[C@@H](CC(N)=O)C(=O)N[C@H](C(=O)N[C@@H](Cc1c[nH]cn1)C(=O)N[C@H](C(=O)N[C@@H](CC(=O)O)C(=O)N[C@@H]1CSSCC[C@@H](C(=O)N[C@@H](CCCNC(=N)N)C(=O)N[C@@H](CC(C)C)C(=O)NC(C)(C)C(=O)N[C@@H](C)C(=O)N[C@@H](CCCCN)C(=O)N[C@@H](CC(C)C)C(N)=O)NC(=O)[C@H](Cc2ccccc2)NC(=O)[C@H](Cc2ccc(O)cc2)NC1=O)C(C)(C)C)C(C)C` [JBT00002494, Ac-FQSKpNVH-Tle-D[cYF-Hcy-]RL-Aib-AKL-NH2] (Ac-FQSK[dP]NVH[Tle]D[dC]YF[hCys]RL[Aib]AKL-NH2; disulfide 11-14) was tested, and the pIC50 [1] was 8.55.
Molecule `CCCCCCCCCCCCCC(=O)NCCCOCCOCCOCCCNC(=O)CCC(=O)NCCCC[C@H](NC(=O)[C@H](CC(C)C)NC(=O)[C@H](CCCCN)NC(=O)[C@H](C)NC(=O)C(C)(C)NC(=O)[C@H](CC(C)C)NC(=O)[C@H](CCCNC(=N)N)NC(=O)[C@H](CCC(=O)O)NC(=O)[C@H](Cc1ccccc1)NC(=O)[C@H](Cc1ccc(O)cc1)NC(=O)[C@@H](C)NC(=O)[C@H](CC(=O)O)NC(=O)[C@@H](NC(=O)[C@H](Cc1c[nH]cn1)NC(=O)[C@@H](NC(=O)[C@H](CSCNC(C)=O)NC(=O)[C@H]1CCCN1C(=O)[C@H](CCCCN)NC(=O)[C@H](CO)NC(=O)[C@H](CCC(N)=O)NC(=O)[C@H](Cc1ccccc1)NC(=O)CCCCC)C(C)C)C(C)(C)C)C(N)=O` [JBT00002531, Hex-FQSKp-Cys(Acm)-VH-Tle-DaYFERL-Aib-AKLK(Ttds- Myr)--NH2] (Hexanoyl-FQSK[dP]C(Acm)VH[Tle]D[dA]YFERL[Aib]AKLK([Suc-X1])-NH2) has a pIC50 [2] of 7.56 and a pIC50 [3] of 7.57.
In the case of “(Ac-FQSKpNVHVDGYFERL-Aib-AKLC-NH2)2-M2PEG2000 [JBT00002523]”, the pIC50 [2] was 8.99.
For “Ac- KKLTGDWTYFWSKVIWGPGVIERQMPVSTFH KK-NH2 (SEQ ID NO: 3065) (Ac-KKLTGDWTYFWSKVIWGPGVIERQMPVSTFHKK-NH2) [JBT0177*]”, the “Progress Curves of Inhibition of FXa | % Inhibit ([…])” value [4] was 4%.
For “Ac- KKPLAVQLHVSKRSKEMALARLYYKTSKK- NH2 (SEQ ID NO: 2129) (Ac-KKPLAVQLHVSKRSKEMALARLYYKTSKK-NH2) [JBT0229]”, the “Progress Curves of Inhibition of FXa | % Inhibit ([…])” value [5] was 0% and the “Extrinsic Tenase Inhibition by TFPI | % Inhibit ([…])” value [6] was 0%.
With “Ac- KKVGSVTRWSMYGPIFIKFTWTLEQPVGWDH KK-NH2 (SEQ ID NO: 3056) (Ac-KKVGSVTRWSMYGPIFIKFTWTLEQPVGWDHKK-NH2) [JBT0176*]” the “Progress Curves of Inhibition of FXa | % Inhibit ([…])” value [4] was 0%.
Work on “Ac-FQ-Ede(O)-KpNVH-Tle-DaYFERL-Aib-AKL-NH2 [JBT00002453]” yielded a pIC50 [7] of 8.10.
For “Ac-FQSK-Nmg-NVFVFGYFERLRAKL-NH2 [JBT00000500]”, the pIC50 [8] was 7.03.
In the case of “Ac-FQSK-Nmg-NVFVTGYFERL-Aib-AKL-NH2 [JBT00001585]”, the pIC50 [9] was 7.82.
Molecule “Ac-FQSK-nma-NVHVDGYFERL-Aib-AKL-NH2 [JBT00002280]” has a pIC50 [10] of 8.34.
“Ac-FQSKGNVFVDGYFERL-Aib-AKLC(PEG)-NH2 [JBT00001855]” showed a pIC50 [9] of 6.92.
In the case of “Ac-FQSKGNVFVTGYFDRLRAKL-NH2 [JBT0775 | 69]”, the pIC50 [11] was 7.66.
Ac-FQSKKNVFV-NH2 [JBT00002258] showed a pIC50 [12] of less than 5.30.
“Ac-FQSKpNVH-Nmv-DGYFERL-Aib-AKLC(NEM)-NH2 [JBT00002387]” was tested, and the pIC50 [13] was less than 6.30.
In the case of “Ac-FQSKpNVH-Tle-DGYFERL-Aib-A-Nmk-L-NH2 [JBT00002425]”, the pIC50 [14] was less than 6.30.
“Ac-FQSKpNVH-Tle-DaYFERL-Aib-A-Opc-L-NH2 [JBT00002447]” gave a pIC50 [15] of less than 6.30.
